{"source": "patent US8828988B2", "about": "(Tetraphase Pharmaceuticals, Inc., priority 2009, dated 2014)", "key": {"[1]": {"tested_on": "Acinetobacter baumannii AB110, ATCC 19606", "test": "MIC assay, AB110", "format": "cell-based", "conditions": "ATCC19606, Table 9, read-out: MIC A.baum AB110"}, "[2]": {"tested_on": "H. influenzae isolates (Eurofins-Medinet, recent clinical isolates)", "test": "MIC50 and MIC90 analysis (Example 22)", "protocol": "(§4) Frozen bacterial strains were thawed and subcultured onto Mueller Hinton Broth (MHB) or other appropriate media (Streptococcus requires blood and Haemophilus requires hemin and NAD). Following incubation overnight, the strains were subcultured onto Mueller Hinton Agar and again incubated overnight. […] Isolated colonies were selected to prepare a starting inoculum equivalent to a 0.5 McFarland standard. […] Antibiotics (stored frozen, thawed and used within 3 hours of thawing) and compounds were further diluted to the desired working concentrations.\n(§5) The assays were run as follows. Fifty μL of MHB was added to wells 2-12 of a 96-well plate. One hundred μL of appropriately diluted antibiotic or compound was added to well 1. Fifty μL of antibiotics or compound was removed from well 1 and added to well 2 and the contents of well 2 mixed by pipetting up and down five times. Fifty μL of the mixture in well 2 was removed and added to well 3 and mixed as above. Serial dilutions were continued in the same manner through well 12. Fifty μL was removed from well 12 so that all contained 50 μL. Fifty μL of the working inoculum was then added to all test wells. A growth control well was prepared by adding 50 μL of working inoculum and 50 μL of MHB to an empty well. The plates were then incubated at 37° C. overnight, removed from the incubator and each well was read on a plate reading mirror. The lowest concentration (MIC) of test compound that inhibited the growth of the bacteria was recorded.\n(§6) MIC, MIC50 and MIC90 values were determined according to CLSI methodology. S. pneumoniae and H. influenzae isolates were obtained from Eurofins-Medinet and are recent clinical isolates. S. aureus strains were collected from various geographical sources."}, "[3]": {"tested_on": "Staphylococcus aureus SA161, HA-MRSA, tetracycline-resistant, tet(M)", "test": "MIC assay, SA161", "format": "cell-based"}, "[4]": {"tested_on": "Pseudomonas aeruginosa PA111, ATCC 27853", "test": "MIC assay, PA111", "format": "cell-based", "conditions": "ATCC27853, Table 9, read-out: MIC P. aeruginosa ATCC 27853"}, "[5]": {"tested_on": "Enterococcus faecalis EF159, tetracycline-resistant, tet(M)", "test": "MIC assay, EF159", "format": "cell-based"}, "[6]": {"tested_on": "S. aureus strains collected from various geographical sources", "test": "MIC50 and MIC90 analysis (Example 22)", "protocol": "as §4, §5, §6"}, "[7]": {"tested_on": "Enterococcus faecalis EF103, ATCC 29212", "test": "MIC assay, EF103", "format": "cell-based"}, "[8]": {"test": "Pharmacokinetic analysis in Sprague-Dawley rats", "conditions": "IV, single dose 1 mg/kg, mean"}, "[9]": {"tested_on": "E. coli ATCC 25922", "test": "Mouse systemic infection model, E. coli septicemia", "conditions": "survival after 48 hours"}, "[10]": {"tested_on": "E. coli DH10B(pBAD-tetM), expressing tet(M)", "test": "MIC against recombinant E. coli expressing tet(M)", "format": "cell-based", "conditions": "for MIC: Escherichia coli", "from_the_text": "(§1) Constructs were transformed into E. coli DH10B for expression. Recombinant strains were pre-induced under optimized conditions with L-arabinose prior to use as inocula in CLSI standardized MIC assays."}, "[11]": {"tested_on": "Staphylococcus aureus SA100, ATCC 13709, MSSA, Smith strain", "test": "MIC assay, SA100", "format": "cell-based"}, "[12]": {"tested_on": "Enterobacter cloacae EC108, ATCC 13047", "test": "MIC assay, EC108", "format": "cell-based", "conditions": "ATCC13047, Table 9, read-out: MIC Enterobacter cloaceae ATCC 13047"}, "[13]": {"tested_on": "Staphylococcus aureus SA158, tetracycline-resistant tet(K)", "test": "MIC assay, SA158", "format": "cell-based"}, "[14]": {"tested_on": "Escherichia coli EC155, tetracycline-resistant, tet(A)", "test": "MIC assay, EC155", "format": "cell-based"}, "[15]": {"tested_on": "tet(M) strains of S. pneumoniae", "test": "MIC, CLSI methodology, recent clinical isolates (Example 21)", "format": "cell-based", "conditions": "Streptococcus pneumoniae, read-out: MIC against tet(M) strains of S. pneumoniae", "method": "(§2) The assays were run as follows.\n(§3) The antibacterial activities of Compounds MIC values were determined according to CLSI methodology. Recent clinical isolates were obtained from Eurofins-Medinet. Antibiotics were obtained from standard commercial sources."}, "[16]": {"tested_on": "tet(M) strains of S. aureus", "test": "MIC, CLSI methodology, recent clinical isolates (Example 21)", "format": "cell-based", "conditions": "Staphylococcus aureus, read-out: MIC against tet(M) strains of S. aureus", "method": "as §2, §3"}, "[17]": {"tested_on": "E. coli DH10B(pBAD-tetK), expressing tet(K)", "test": "MIC against recombinant E. coli expressing tet(K)", "format": "cell-based", "conditions": "for MIC: Escherichia coli", "from_the_text": "as §1"}, "[18]": {"tested_on": "E. coli S30 extract system, coupled in vitro transcription/translation, firefly luciferase readout", "test": "In vitro transcription/translation (TnT) assay", "format": "biochemical", "conditions": "Table 8"}, "[19]": {"tested_on": "Escherichia coli EC107, ATCC 25922", "test": "MIC assay, EC107", "format": "cell-based"}, "[20]": {"tested_on": "S. pneumoniae isolates (Eurofins-Medinet, recent clinical isolates)", "test": "MIC50 and MIC90 analysis (Example 22)", "protocol": "as §4, §5, §6"}, "[21]": {"test": "in vivo", "conditions": "Sprague-Dawley, rat"}, "[22]": {"tested_on": "Streptococcus pneumoniae SP106, ATCC 49619", "test": "MIC assay, SP106", "format": "cell-based"}, "[23]": {"tested_on": "Klebsiella pneumoniae KP109, ATCC 13883", "test": "MIC assay, KP109", "format": "cell-based", "conditions": "ATCC13883, Table 9, read-out: MIC Klebsiella pneum ATCC 13883"}, "[24]": {"tested_on": "S. aureus ATCC 13709 (Smith)", "test": "Mouse systemic infection model, S. aureus septicemia", "conditions": "survival after 48 hours"}, "[25]": {"tested_on": "Klebsiella pneumoniae KP153, tetracycline-resistant, tet(A), MDR, ESBL+", "test": "MIC assay, KP153", "format": "cell-based", "conditions": "Table 9, read-out: MIC Klebsiella pneum KP153 (tet)A"}}, "note": "Where two headings read alike, the source gives them in different places."}
{"smiles": "CN(C)CC(C)(C)CNc1nc(Cl)c2c(c1O)C(=O)C1=C(O)[C@]3(O)C(=O)C(C(N)=O)=C(O)[C@@H](N(C)C)[C@@H]3C[C@@H]1C2", "note": "[Compound 151]", "values": [{"measurement": "MIC", "setting": "[1]", "value": 2, "unit": "µg/mL"}, {"measurement": "MIC Range", "setting": "[2]; H. influenzae (n = 12)", "value": "0.25 to 2", "unit": "µg/mL"}, {"measurement": "MIC50", "setting": "[2]; Haemophilus influenzae", "value": 1, "unit": "µg/mL"}, {"measurement": "MIC90", "setting": "[2]; Haemophilus influenzae", "value": 1, "unit": "µg/mL"}, {"measurement": "MIC", "setting": "[3]; Table 8, read-out: MIC S. aureus MRSA, tetM", "value": 2, "unit": "µg/mL"}, {"measurement": "MIC", "setting": "[3]; Table 9, read-out: MIC MRSA (tet)M SA161", "value": 2, "unit": "µg/mL"}, {"measurement": "MIC", "setting": "[4]", "value": 32, "unit": "µg/mL"}, {"measurement": "MIC", "setting": "[5]; Table 8, read-out: MIC E. faecalis tetM", "value": 2, "unit": "µg/mL"}, {"measurement": "MIC", "setting": "[5]; Table 9, read-out: MIC E. faecalis EF159 (tet)M", "value": 2, "unit": "µg/mL"}, {"measurement": "MIC Range", "setting": "[6]; S. aureus (n = 20)", "value": "0.063 to 0.5", "unit": "µg/mL"}, {"measurement": "MIC50", "setting": "[6]; Staphylococcus aureus", "value": 0.13, "unit": "µg/mL"}, {"measurement": "MIC90", "setting": "[6]; Staphylococcus aureus", "value": 0.25, "unit": "µg/mL"}, {"measurement": "MIC", "setting": "[7]; Enterococcus faecalis, ATCC29212, Table 8, read-out: MIC E. faecalis ATCC 29212", "value": 0.25, "unit": "µg/mL"}, {"measurement": "MIC E. faecalis ATCC 29212", "setting": "[7]; Table 9", "value": 0.25, "unit": "µg/mL"}, {"measurement": "Clobs", "setting": "[8]", "value": 3.3723, "unit": "mL/min/kg"}, {"measurement": "Vzobs", "setting": "[8]", "value": 1.25614, "unit": "L/kg"}, {"measurement": "half-life", "setting": "[8]", "value": 258, "unit": "min"}, {"measurement": "PD50 in the mouse septicemia model against E. coli", "setting": "[9]; CD-1 mice, IP infection, treatment one hour post-challenge", "value": 17.0, "unit": "mg/kg"}, {"measurement": "PD50", "setting": "[9]; mouse septicemia, E. coli ATCC 25922, treatment one hour post-challenge", "value": 17.0, "unit": "mg/kg"}, {"measurement": "MIC", "setting": "[10]; read-out: MIC, TetM induced", "value": 1, "unit": "µg/mL"}, {"measurement": "MIC", "setting": "[10]; read-out: MIC, Uninduced", "value": 0.5, "unit": "µg/mL"}, {"measurement": "Ratio (TetM induced / Uninduced)", "setting": "[10]; ratio of MICs", "value": 2}, {"measurement": "Effect of expression of (tet)M on activity", "setting": "[10]; result in words", "value": "minimally affected"}, {"measurement": "MIC", "setting": "[11]; Table 9, read-out: MIC S. aureus ATCC 13709", "value": 0.5, "unit": "µg/mL"}, {"measurement": "MIC", "setting": "[11]; Table 12, read-out: MIC S. aureus ATCC 13709", "value": 0.5, "unit": "µg/mL"}, {"measurement": "MIC", "setting": "[12]", "value": 2, "unit": "µg/mL"}, {"measurement": "MIC", "setting": "[13]; Table 8, read-out: MIC S. aureus tetK", "value": 0.13, "unit": "µg/mL"}, {"measurement": "MIC", "setting": "[13]; Table 9, read-out: MIC S. aureus SA158 (tet)K", "value": 0.125, "unit": "µg/mL"}, {"measurement": "MIC", "setting": "[14]; Table 8, read-out: MIC E. coli tetA", "value": 8, "unit": "µg/mL"}, {"measurement": "MIC", "setting": "[14]; Table 9, read-out: MIC E. coli EC155 (tet)A", "value": 8, "unit": "µg/mL"}, {"measurement": "MIC", "setting": "[15]", "value": "≤ 0.25", "unit": "µg/mL"}, {"measurement": "MIC", "setting": "[16]", "value": "≤ 8", "unit": "µg/mL"}, {"measurement": "MIC", "setting": "[17]; read-out: MIC, TetK Induced", "value": 1, "unit": "µg/mL"}, {"measurement": "MIC", "setting": "[17]; read-out: MIC, Uninduced", "value": 1, "unit": "µg/mL"}, {"measurement": "MIC ratio, TetK induced to uninduced", "setting": "[17]; ratio of TetK induced to uninduced MIC", "value": 1}, {"measurement": "Effect of expression of (tet)K on activity", "setting": "[17]; result in words", "value": "unaffected"}, {"measurement": "E. coli TnT", "setting": "[18]", "value": 0.7, "unit": "µg/mL"}, {"measurement": "MIC", "setting": "[19]; ATCC25922, Table 8, read-out: MIC E. coli ATCC 25922", "value": 0.5, "unit": "µg/mL"}, {"measurement": "MIC", "setting": "[19]; ATCC25922, Table 9, read-out: MIC E. coli ATCC 25922", "value": 0.5, "unit": "µg/mL"}, {"measurement": "MIC", "setting": "[19]; ATCC25922, Table 12, read-out: MIC E. coli ATCC 25922", "value": 0.25, "unit": "µg/mL"}, {"measurement": "MIC Range", "setting": "[20]; S. pneumoniae (n = 20)", "value": "≦0.016-0.063 μg/ml"}, {"measurement": "MIC50", "setting": "[20]; Streptococcus pneumoniae", "value": "≤ 0.016", "unit": "µg/mL"}, {"measurement": "MIC90", "setting": "[20]; Streptococcus pneumoniae", "value": 0.063, "unit": "µg/mL"}, {"measurement": "AUC(0-t)", "setting": "[21]; iv, 1 mg/kg", "value": 4870, "unit": "ng·h/mL"}, {"measurement": "Cmax", "setting": "[21]; iv, 1 mg/kg", "value": 2400, "unit": "ng/mL"}, {"measurement": "Tmax", "setting": "[21]; iv, 1 mg/kg", "value": 13.2, "unit": "min"}, {"measurement": "bioavailability", "setting": "[21]; oral, 10 mg/kg", "value": 0.8, "unit": "%"}, {"measurement": "AUC(0-t)", "setting": "[21]; po, 10 mg/kg", "value": 395, "unit": "ng·h/mL"}, {"measurement": "Cmax", "setting": "[21]; po, 10 mg/kg", "value": 69.8, "unit": "ng/mL"}, {"measurement": "Tmax", "setting": "[21]; po, 10 mg/kg", "value": 49.8, "unit": "min"}, {"measurement": "half-life", "setting": "[21]; po, 10 mg/kg", "value": 313, "unit": "min"}, {"measurement": "MIC", "setting": "[22]; ATCC49619, Table 8, read-out: MIC S. pneumoniae ATCC 49619", "value": 0.063, "unit": "µg/mL"}, {"measurement": "MIC", "setting": "[22]; ATCC49619, Table 9, read-out: MIC S. pneum ATCC 49619", "value": 0.016, "unit": "µg/mL"}, {"measurement": "MIC", "setting": "[23]", "value": 2, "unit": "µg/mL"}, {"measurement": "PD50 in the mouse septicemia model against S. aureus", "setting": "[24]; CD-1 mice, IP infection, intravenous treatment one hour post-challenge", "value": 0.36, "unit": "mg/kg"}, {"measurement": "PD50", "setting": "[24]; mouse septicemia, S. aureus ATCC 13709, intravenous treatment one hour post-challenge", "value": 0.36, "unit": "mg/kg"}, {"measurement": "MIC", "setting": "[25]", "value": 8, "unit": "µg/mL"}]}
